Measured values published in paper PMC3938723, “Learning from Host-Defense Peptides: Cationic, Amphipathic Peptoids with Potent Anticancer Activity” (PLoS ONE, 2014).
Non-standard residues stand in square brackets, D forms with d. Residues, ends and D or L forms follow the SMILES beside them. Nspe = C[C@H](NCC(=O)O)c1ccccc1; Nlys = NCCCCNCC(=O)O

What was measured:
MCF-7 (breast cancer) = assay: MTS cell viability assay, MCF-7; type: cell-based; details: 72 h
Procedure: (§1) MCF-7, MCF-7/TxT50 and OVCAR-3 (available in ATCC) were kindly provided by Professor Branimir Sikic's lab at Stanford University, and were cultured in McCoy's 5A media (GIBCO) with 10% FBS and antibiotics. Primary dermal fibroblasts were gifts from Lifeline Cell Technology and were cultured <6 passages according to the protocol Lifeline provides. All the cells were cultured in cell incubators (Thermo Scientific) at 37°C with 5% CO2.
(§2) This assay is a colorimetric method for determining the number of viable cells in proliferation. Aliquots of 100 µl media containing 1×10^4 cells were distributed into each well of a 96-well plate (BD Falcon). The following day, when cell density reaches about ∼40% confluency, the cell media were removed and replaced with serial dilutions of peptoid stocks in culturing media. For peptoid dilutions, peptoid stocks were initially diluted in media at 100 µM and then diluted by half in series using a multichannel pipette, and maintained in 100 µl media for each concentration with triple repeats. After peptoid solutions were transferred onto cells in 96-well plates, cells were incubated at 37°C for certain time periods. Then 20 µl of the CellTiter 96 Aqueous Non-Radioactive cell proliferation assay (Promega) reagent which contains a tetrazolium compound, [3-(4,5-dimethylthiazol-2-yl)-5-(3-carboxymethoxyphenyl)-2-(4-sulfophenyl)-2H-tetrazolium, inner salt; MTS(a)], was added to each well and cells were further incubated for 2 h to metabolize. The absorbance of formazan products were measured at 490 nm in a microplate reader (Molecular Devices). Percentage of cell viability = (A -A testblank)/(A control -A blank)×100, where A is the absorbance of the test well and A control the average absorbance of wells with cells not treated with peptoids. A testblank (media, MTS, and diluted peptoids) and A blank (media and MTS) were background absorbances measured in the absence of cells.
(§3) The activity and selectivity of these peptoids against cancer cells were evaluated in vitro. Their cytotoxicity was tested in three cancer cell lines, MCF-7 (human breast cancer), LNCaP (human prostate cancer), and OVCAR-3 (human ovarian cancer). To estimate the selectivity of these peptoids in vitro, hemolytic activities of some peptoids were cited from previously published work (Table 2 **column), and the MRC-5 cell line (human fibroblasts derived from fetal lung tissues) and primary dermal fibroblasts were also tested as normal cell controls. Briefly, cells were treated with peptoids diluted in culturing media for certain time periods, and then cell viability was measured via MTS assays.

[1] = tested on: MRC-5 (fetal lung fibroblast); assay: MTS cell viability assay, MRC-5; type: cell-based; details: 72 h
Procedure: as §1, §2, §3

MCF-7 cells = assay: LDH leakage assay (plasma membrane integrity); type: cell-based, human; details: 50 µM, LDH leakage caused by cell lysis solution as the 100% control, measured immediately after treatment
Procedure: This assay is used to measure the membrane integrity as a function of the amount of cytoplasmic LDH (lactic dehydrogenase) released into the medium. Experiments were carried out according to the protocol of the In Vitro Toxicology Assay Kit, Lactic Dehydrogenase (LDH) based (Sigma-Aldrich). Briefly, cells were plated as described before, and peptoids were diluted similarly but in culturing media without phenol red to reduce background signal. After peptoid treatments, media supernatant were collected and centrifuged to remove any cell debris, and analyzed for LDH activity in a 96-well plate using the kit, absorbance at 490 nm and 690 nm measured using a microplate reader. All the following absorbance difference = A 490nm –A 690nm. Percentage of LDH leakage = (A -A testblank)/(A lysis -A blank)×100, where A is the average absorbance difference of the test wells and A lysis the average absorbance difference of wells with cells treated with cell lysis solution provided by the kit for 45 min. A testblank (media, diluted peptoids and LDH measuring reagents) and A blank (media and LDH measuring reagents) were background absorbance differences measured in the absence of cells.
These anticancer peptoids exert fast killing in cancer cells and are not affected by the multidrug resistance. […] The LDH assay measures membrane damage by quantifying the leakage of the cytoplasmic enzyme LDH. […]

human red blood cells = details: concentration causing 10% hemolysis of human red blood cells; cited from earlier work
Text: Table 2 Peptoid Cytotoxicity in cancer cell lines and control cells. | column: HC10 (µM) ** || The chain length is believed to influence not only the activity but also modes of action of cationic, amphipathic peptides, [34]. […] Thus we limited the chain length of peptoids to 13 residues at most, and studied 1 9mer which has the same charge-to-length ratio (CTLR) as peptoid ...

## C[C@@H](c1ccccc1)N(CC(N)=O)C(=O)CN(C(=O)CN(CCCCN)C(=O)CN(C(=O)CN(C(=O)CN(CCCCN)C(=O)CN(C(=O)CN(C(=O)CN(CCCCN)C(=O)CN(C(=O)CN(C(=O)CNCCCCN)[C@@H](C)c1ccccc1)[C@@H](C)c1ccccc1)[C@@H](C)c1ccccc1)[C@@H](C)c1ccccc1)[C@@H](C)c1ccccc1)[C@@H](C)c1ccccc1)[C@@H](C)c1ccccc1 [Peptoid 1, H-(NLys-Nspe-Nspe)4-NH2] (H-[Nlys][Nspe][Nspe][Nlys][Nspe][Nspe][Nlys][Nspe][Nspe][Nlys][Nspe][Nspe]-NH2)
MCF-7 (breast cancer)
  LC50 MCF-7 (breast cancer): 5 µM
[1]
  LC50 MRC-5 (fetal lung fibroblast): 8 µM
MCF-7 cells
  LDH (enzyme) leakage: ~50%
Human red blood cells
  HC10: 21 µM
